The values below come from patent US5100907A, “Hydantoin esters” (Lonza, Inc., priority 1990, dated 1992).

Data set [1] can be described thus: HLB determination (weighted average method). It is filed as physicochemical. Put shortly: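 With test ester fixed at 1 wt.%, the ratio of sorbitan monostearate to POE 20 sorbitan monostearate was varied to emulsify 40:56 (wt.%) paraffin oil:water, mixed at 70°–80 °C and cooled below 30 °C with agitation. Emulsions were graded visually by droplet size; ester HLB was calculated by weighted average from the optimum emulsion.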

Data set [2] can be described thus: Total available formaldehyde (TF) and free formaldehyde (FF) levels of esters (I). It is filed as physicochemical. As to conditions: for FF (free formaldehyde) / TF (total available formaldehyde): neat ester, Table 3. The source says:
Thus, whether the formaldehyde content is chemically bonded to the hydantoin moiety or is free formaldehyde (FF) in solution, e.g., in water as formaldehyde or methylene glycol [CH2 (OH)2 ], it remains available for biocidal action. Due to this direct relation, the weight percent TF in a given preparation of the ester (I), e.g. a cosmetic formulation, can be predicted accurately, regardless of the level of dilution.

The test system of the next data set is Aspergillus niger. Kind of data set: Antimicrobial study against Aspergillus niger (mold). The class given is cell-based. To be noted: methylolated C8/10 10,800 ppm, methylolated lauric 11,400 ppm, DMDMH 3,000 ppm, others 14,700 ppm. As for the experimental part:
(§1) The antimicrobial properties of typical esters (I) and (Ia) were tested by minimum inhibitory concentration (MIC) tests, along with certain known substances, against […] strains of organisms: a mold, Aspergillus niger; a gram-positive bacteria, Staphylococcus aureus; and two gram-negative bacteria, Escherichia coli and Pseudomonas aeruginosa. […] These tests were used to determine any effect on biocidal activity of the varying chain length of the ester.
(§2) The known substances, on which identical tests were also performed, included the biocide, dimethyloldimethylhydantoin or DMDMH (iv), and a series of three surfactants, i.e., the three common emulsifiers, sodium lauryl sulfate (SLS); ethylene glycol distearate (EGDS), in the form of the commercial product PEGOSPERSE 50 DS (Lonza Inc.); and polyoxyethylene 20 sorbitan monoleate (POE 20 SMO), in the form of the commercial product GLYCOSPERSE 0 20 (Lonza Inc.).
(§3) The tests entailed contaminating a preexisting micro-colony with a known quantity (ppm, concentration) of test material. Each colony was then examined periodically over a one week period. […] A test was deemed non-efficacious when there was no decrease in colony size. In an effort to avoid any possible solvent effect, the micro-study was conducted in a totally aqueous solvent system without use of any other solvent.

Data set [3] is described as follows: Solubilities of esters in typical solvents / appearance of samples in water. The class given is physicochemical. To be noted: 25° C.
The subject of a further data set is Pseudomonas aeruginosa. Nature of the data set: Antimicrobial study against Pseudomonas aeruginosa (gram-negative bacteria). The class given is cell-based. As to conditions: methylolated C8/10 10,800 ppm, methylolated lauric 11,400 ppm, DMDMH 3,000 ppm, others 14,700 ppm. As for the experimental part:
as §1, §2, §3

Data set [4] in a line: Surface tension tests (cmc, Gibbs' Free Energy of Micellation). The class given is physicochemical. A digest of the protocol:
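Surface tension of aqueous ester solutions measured at the liquid-air interface with a du Noüy ring tensiometer, with correction factor applied; SLS and distilled water as references. cmc taken where corrected surface tension vs −log concentration first levels off; ΔG°cmc = 2.303RT(log cmc − log[water]), and per-CH2 value from slope versus chain carbon number.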

Where [5] appears, read: 1% active concentration in water.
Setting [6] is: among esters (I) examined, Table 6.

For the compound `CCCCCCCCCCCC(=O)OCCN1C(=O)N(CO)C(=O)C1(C)C` [Methylolated Lauric Ester, 2-(3-hydroxymethyl-5,5-dimethyl-1,3-diazacyclopentane-2,4-dion-1-yl)-ethylester of lauric acid], in data set [1], the “Average HLB” value was 12.8. Moreover, the “HLB Range” value in data set [1] is listed as 12-14. Also, in data set [2], the “FF (free formaldehyde)” value was found to be 0.2 Wt. %. Besides, the “TF (total available formaldehyde)” value in data set [2] was 8.0 Wt. %. Moreover, the “Colony Count” value in the data set on Aspergillus niger (Day 0) is reported as 400 × 1,000; with Aspergillus niger (Day 1), 2 × 1,000; in the data set on Aspergillus niger (Day 2), < 0.01 × 1,000; in the data set on Aspergillus niger (Day 3) it was < 0.01 × 1,000; in the data set with Aspergillus niger (Day 7), < 0.01 × 1,000; in the data set on Pseudomonas aeruginosa (Day 0), “TNC”. The “Colony Count” value in the data set on Pseudomonas aeruginosa (Day 1), in the data set on Pseudomonas aeruginosa (Day 2), in the data set with Pseudomonas aeruginosa (Day 3) and in the data set with Pseudomonas aeruginosa (Day 7) was < 0.01 × 1,000 each time. In data set [3], the “Solubility in isopropyl alcohol” value is listed as “S (>10 g/100 g Solvent)”. Also, in data set [3], the “Solubility in mineral oil” value is recorded as “S (>10 g/100 g Solvent)”. The surface active properties result in data set [4] is on record as “particularly favorable surface active properties”.

As to `CCCCCCCC/C=C\CCCCCCCC(=O)OCCN1C(=O)N(CO)C(=O)C1(C)C` [Methylolated Oleic Ester, 2-(3-hydroxymethyl-5,5-dimethyl-1,3-diazacyclopentane-2,4-dion-1-yl)-ethylester of oleic acid], the “Average HLB” value in data set [1] came out at 15.0. Also, the “HLB Range” value in data set [1] is reported as 14-16. In addition, the “Calculated TF” value in data set [2] (setting [5]) was 0.065 Wt. %. Further, in data set [2] (setting [5]), the “Determined FF” value was found to be 0.0112 Wt. %. Besides, the “Ratio FF/TF” value in data set [2] (setting [5]) worked out at 0.172. In data set [2] (at a concentration of 1.0%), this compound yielded a TF of 0.4 wt. %. For the same compound, the “FF (free formaldehyde)” value in data set [2] was 0.2 Wt. %. For the same compound, in data set [2], the “TF (total available formaldehyde)” value amounted to 6.5 Wt. %. The “Colony Count” value with Aspergillus niger (Day 0) is on record as 2,000 × 1,000; with Aspergillus niger (Day 1) it was 0.5 × 1,000; with Aspergillus niger (Day 2), < 0.01 × 1,000; with Aspergillus niger (Day 3), < 0.01 × 1,000; in the data set with Aspergillus niger (Day 7), < 0.01 × 1,000; with Pseudomonas aeruginosa (Day 0), “TNC”. Besides, the “Colony Count” value with Pseudomonas aeruginosa (Day 1), with Pseudomonas aeruginosa (Day 2), in the data set with Pseudomonas aeruginosa (Day 3) and in the data set with Pseudomonas aeruginosa (Day 7) was < 0.01 × 1,000 throughout. Also, in data set [3], the “Solubility in isopropyl alcohol” value is listed as “S (>10 g/100 g Solvent)”. The “Solubility in mineral oil” value in data set [3] is on record as “S (>10 g/100 g Solvent)”. Moreover, in data set [4], the surface active properties result was “particularly favorable surface active properties”. Besides, in data set [4] (setting [6]), the “cmc, relative rank” value is given as “the lowest cmc values”. Further, the “ΔG°cmc, relative rank” value in data set [4] (setting [6]) is reported as “the lowest ΔG°cmc values”. In data set [4] (calculated from cmc by Eq. 1, T=298° K.), the “ΔG°cmc (Gibbs' Free Energy of Micellation)” value is -6.962 kcal/mol. The “cmc (critical micelle concentration)” value in data set [4] (ester/water solution) is 4.0 × 10^-4 mol dm^-3.
